Source: patent US11000033B2, “Ketone or oxime compound, and herbicide” (NISSAN CHEMICAL CORPORATION, priority 2014, dated 2021)

Tests used:
Assay type in all cases: in vivo
[1] = test system: Monochoria vaginalis; test: Test Example 2: herbicidal activity, application during weed generation in submerged conditions (symbol C); conditions: Table 23; application herbicide amount 320 g/ha; grade 0-5 by criteria of Test Example 1
How it was run: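 Alluvial soil in pots was flooded to a 4 cm water depth and sown with a mix of the three weed species, then grown in a greenhouse at 25° C. to 30° C. At the one- to two-leaf stage, an emulsifiable formulation diluted in water to a set dose was applied to the water surface. Effects were scored visually 3 weeks later.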

[2] = test system: directly sowed rice plant; test: Test Example 3: effect on crop by foliage application, Wagner pot (symbol b); conditions: application herbicide amount 320 g/ha
How it was run: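 Plants are raised from seed in flooded paddy conditions: water stands 0.1–0.5 cm over alluvial soil, and the pot is kept in a greenhouse at 25–30 °C. Species sown are barnyardgrass (E. crus-galli var. crus-galli), Leptochloa chinensis, Cyperus difformis and rice.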

[3] = test system: Digitaria ciliaris; test: Test Example 4: herbicidal effect by soil treatment (symbol F); conditions: application herbicide amount 320 g/ha
How it was run: (§1)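 Seeds were sown in sterilized diluvial soil, covered with about 1.5 cm of soil, and the soil surface was sprayed with a water-diluted emulsion of the compound at a predetermined rate. Plants grew in a greenhouse at 25° C. to 30° C.; effects were scored visually 3 weeks after application.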

[4] = test system: Echinochloa crus-galli var. crus-galli; test: Test Example 4: herbicidal effect by soil treatment (symbol H); conditions: application herbicide amount 320 g/ha
How it was run: as §1

[5] = test system: Avena fatua; test: Test Example 4: herbicidal effect by soil treatment (symbol I); conditions: application herbicide amount 320 g/ha
How it was run: as §1

[6] = test system: Alopecurus myosuroides; test: Test Example 4: herbicidal effect by soil treatment (symbol J); conditions: application herbicide amount 320 g/ha
How it was run: as §1

[7] = test system: Lolium multiflorum Lam.; test: Test Example 4: herbicidal effect by soil treatment (symbol K); conditions: application herbicide amount 320 g/ha
How it was run: as §1

[8] = test system: Apera spica-venti; test: Test Example 4: herbicidal effect by soil treatment (symbol L); conditions: application herbicide amount 320 g/ha
How it was run: as §1

[9] = test system: rice; test: Test Example 4: effect on crop by soil treatment (symbol b); conditions: application herbicide amount 320 g/ha
How it was run: (§2)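 Plants are raised in a greenhouse (25° C. to 30° C.) from spot-sown seed, which sits under about 1.5 cm of sterilized diluvial soil in a box shared with weed species.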

[10] = test system: beet; test: Test Example 4: effect on crop by soil treatment (symbol f); conditions: application herbicide amount 320 g/ha
How it was run: as §2

[11] = test system: rapeseed; test: Test Example 4: effect on crop by soil treatment (symbol g); conditions: application herbicide amount 320 g/ha
How it was run: as §2

[12] = test system: Digitaria ciliaris; test: Test Example 5: herbicidal effect by foliage application, plastic box (symbol F); conditions: 320 g/ha, 3 weeks after application
How it was run: (§3)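 Leaf-applied emulsion, water-diluted to a preset herbicide dose, on two-week-old seedlings raised in a 25° C. to 30° C. greenhouse; injury rated at 3 weeks using earlier criteria.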

[13] = test system: Avena fatua; test: Test Example 5: herbicidal effect by foliage application, plastic box (symbol I); conditions: 320 g/ha, 3 weeks after application
How it was run: as §3

[14] = test system: Lolium multiflorum Lam.; test: Test Example 5: herbicidal effect by foliage application, plastic box (symbol K); conditions: 320 g/ha, 3 weeks after application
How it was run: as §3

[15] = test system: Apera spica-venti; test: Test Example 5: herbicidal effect by foliage application, plastic box (symbol L); conditions: 320 g/ha, 3 weeks after application
How it was run: as §3

[16] = test system: Abutilon theophrasti; test: Test Example 5: herbicidal effect by foliage application, plastic box (symbol M); conditions: 320 g/ha, 3 weeks after application
How it was run: as §3

[17] = test system: Amaranthus retroflexus; test: Test Example 5: herbicidal effect by foliage application, plastic box (symbol N); conditions: 320 g/ha, 3 weeks after application
How it was run: as §3

[18] = test system: Chenopodium album; test: Test Example 5: herbicidal effect by foliage application, plastic box (symbol O); conditions: 320 g/ha, 3 weeks after application
How it was run: as §3

[19] = test system: Stellaria media; test: Test Example 5: herbicidal effect by foliage application, plastic box (symbol P); conditions: 320 g/ha, 3 weeks after application
How it was run: as §3

[20] = test system: Galium spurium; test: Test Example 5: herbicidal effect by foliage application, plastic box (symbol Q); conditions: 320 g/ha, 3 weeks after application
How it was run: as §3

[21] = test system: Veronica persica; test: Test Example 5: herbicidal effect by foliage application, plastic box (symbol R); conditions: 320 g/ha, 3 weeks after application
How it was run: as §3

[22] = test system: wheat; test: Test Example 5: effect on crop by foliage application, plastic box (symbol e); conditions: 320 g/ha, 3 weeks after application
How it was run: (§4)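 Seeds were sown in spots in sterilized diluvial soil held in a plastic box 21 cm × 13 cm × 7 cm deep, covered with about 1.5 cm of soil, and grown in a greenhouse at 25° C. to 30° C.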

[23] = test system: rapeseed; test: Test Example 5: effect on crop by foliage application, plastic box (symbol g); conditions: 320 g/ha, 3 weeks after application
How it was run: as §4

SMILES	Herbicidal effect grade, C: Monochoria vaginalis [1]	effect on crop b (directly sowed rice plant), grade 0-5 [2]	F: Digitaria ciliaris, herbicidal effect (criteria of Test Example 1) [12]	I: Avena fatua, herbicidal effect (criteria of Test Example 1) [13]	K: Lolium multiflorum Lam., herbicidal effect (criteria of Test Example 1) [14]	L: Apera spica-venti, herbicidal effect (criteria of Test Example 1) [15]	M: Abutilon theophrasti, herbicidal effect (criteria of Test Example 1) [16]	N: Amaranthus retroflexus, herbicidal effect (criteria of Test Example 1) [17]	O: Chenopodium album, herbicidal effect (criteria of Test Example 1) [18]	P: Stellaria media, herbicidal effect (criteria of Test Example 1) [19]	Q: Galium spurium, herbicidal effect (criteria of Test Example 1) [20]	R: Veronica persica, herbicidal effect (criteria of Test Example 1) [21]	e: wheat, effect on crop (criteria of Test Example 1) [22]	g: rapeseed, effect on crop (criteria of Test Example 1) [23]	Herbicidal effect grade, F: Digitaria ciliaris [3]	Herbicidal effect grade, H: Echinochloa crus-galli var. crus-galli [4]	Herbicidal effect grade, I: Avena fatua [5]	Herbicidal effect grade, J: Alopecurus myosuroides [6]	Herbicidal effect grade, K: Lolium multiflorum Lam. [7]	Herbicidal effect grade, L: Apera spica-venti [8]	other results
CON=C(C)CC1CC(OC(=O)N2CCOCC2)=C(c2c(C)cc(-c3ccc(F)cc3)cc2C)C1=O (mixture of isomers) [6-059]	4 (Herbicidal ratio of 70% or higher and lower than 90%)	5 (Herbicidal ratio of 90% or more (almost completely withered))	5 (Herbicidal ratio of 90% or more (almost completely withered))	5 (Herbicidal ratio of 90% or more (almost completely withered))	5 (Herbicidal ratio of 90% or more (almost completely withered))	5 (Herbicidal ratio of 90% or more (almost completely withered))	5 (Herbicidal ratio of 90% or more (almost completely withered))	5 (Herbicidal ratio of 90% or more (almost completely withered))	5 (Herbicidal ratio of 90% or more (almost completely withered))	4 (Herbicidal ratio of 70% or higher and lower than 90%)	4 (Herbicidal ratio of 70% or higher and lower than 90%)	5 (Herbicidal ratio of 90% or more (almost completely withered))	5 (Herbicidal ratio of 90% or more (almost completely withered))	5 (Herbicidal ratio of 90% or more (almost completely withered))	–	–	–	–	–	–	F: Digitaria ciliaris, herbicidal effect grade [3]: 5 (Herbicidal ratio of 90% or more (almost completely withered)); H: Echinochloa crus-galli var. crus-galli, herbicidal effect grade [4]: 2 (Herbicidal ratio of 20% or higher and lower than 40%); I: Avena fatua, herbicidal effect grade [5]: 3 (Herbicidal ratio of 40% or higher and lower than 70%); J: Alopecurus myosuroides, herbicidal effect grade [6]: 5 (Herbicidal ratio of 90% or more (almost completely withered)); K: Lolium multiflorum Lam., herbicidal effect grade [7]: 1 (Herbicidal ratio of 5% or higher and lower than 20%); L: Apera spica-venti, herbicidal effect grade [8]: 5 (Herbicidal ratio of 90% or more (almost completely withered)); b: directly sowed rice plant, effect on crop grade [9]: 0 (Herbicidal ratio of 5% or lower (almost no effect)); f: beet, effect on crop grade [10]: 0 (Herbicidal ratio of 5% or lower (almost no effect)); g: rapeseed, effect on crop grade [11]: 0 (Herbicidal ratio of 5% or lower (almost no effect))
CON=C(C)CC1CC(O)=C(c2c(OC)cc(C)cc2OC)C1=O (stereo not drawn) [6-103]	0 (Herbicidal ratio of 5% or lower (almost no effect))	5 (Herbicidal ratio of 90% or more (almost completely withered))	5 (Herbicidal ratio of 90% or more (almost completely withered))	5 (Herbicidal ratio of 90% or more (almost completely withered))	5 (Herbicidal ratio of 90% or more (almost completely withered))	5 (Herbicidal ratio of 90% or more (almost completely withered))	2 (Herbicidal ratio of 20% or higher and lower than 40%)	0 (Herbicidal ratio of 5% or lower (almost no effect))	0 (Herbicidal ratio of 5% or lower (almost no effect))	1 (Herbicidal ratio of 5% or higher and lower than 20%)	0 (Herbicidal ratio of 5% or lower (almost no effect))	2 (Herbicidal ratio of 20% or higher and lower than 40%)	5 (Herbicidal ratio of 90% or more (almost completely withered))	4 (Herbicidal ratio of 70% or higher and lower than 90%)	5 (Herbicidal ratio of 90% or more (almost completely withered))	5 (Herbicidal ratio of 90% or more (almost completely withered))	5 (Herbicidal ratio of 90% or more (almost completely withered))	5 (Herbicidal ratio of 90% or more (almost completely withered))	5 (Herbicidal ratio of 90% or more (almost completely withered))	5 (Herbicidal ratio of 90% or more (almost completely withered))	Effect on crop grade, b: directly sowed rice plant [9]: 5 (Herbicidal ratio of 90% or more (almost completely withered)); Effect on crop grade, f: beet [10]: 0 (Herbicidal ratio of 5% or lower (almost no effect)); Effect on crop grade, g: rapeseed [11]: 0 (Herbicidal ratio of 5% or lower (almost no effect))
CC(=O)CC1CC(O)=C(c2c(C)cc(C)cc2Br)C1=O (stereo not drawn) [7-011]	0 (Herbicidal ratio of 5% or lower (almost no effect))	5 (Herbicidal ratio of 90% or more (almost completely withered))	4 (Herbicidal ratio of 70% or higher and lower than 90%)	3 (Herbicidal ratio of 40% or higher and lower than 70%)	5 (Herbicidal ratio of 90% or more (almost completely withered))	3 (Herbicidal ratio of 40% or higher and lower than 70%)	4 (Herbicidal ratio of 70% or higher and lower than 90%)	5 (Herbicidal ratio of 90% or more (almost completely withered))	3 (Herbicidal ratio of 40% or higher and lower than 70%)	3 (Herbicidal ratio of 40% or higher and lower than 70%)	0 (Herbicidal ratio of 5% or lower (almost no effect))	1 (Herbicidal ratio of 5% or higher and lower than 20%)	0 (Herbicidal ratio of 5% or lower (almost no effect))	4 (Herbicidal ratio of 70% or higher and lower than 90%)	5 (Herbicidal ratio of 90% or more (almost completely withered))	4 (Herbicidal ratio of 70% or higher and lower than 90%)	0 (Herbicidal ratio of 5% or lower (almost no effect))	3 (Herbicidal ratio of 40% or higher and lower than 70%)	4 (Herbicidal ratio of 70% or higher and lower than 90%)	3 (Herbicidal ratio of 40% or higher and lower than 70%)	Effect on crop grade, b: directly sowed rice plant [9]: 5 (Herbicidal ratio of 90% or more (almost completely withered)); Effect on crop grade, f: beet [10]: 0 (Herbicidal ratio of 5% or lower (almost no effect)); Effect on crop grade, g: rapeseed [11]: 4 (Herbicidal ratio of 70% or higher and lower than 90%)
